# From patent US8536332B2, “Modulating signal transduction pathways with substituted pyridol [2,3-b] pyrazines” (Aeterna Zentaris GmbH, priority 2007, dated 2013)
row,SMILES,melting point [°C]
1,"CCNC(=O)Nc1ccc2ncc(Nc3ccc4c(c3)OC(F)(F)O4)nc2n1 [Compound 42, 1-[3-(2,2-Difluoro-benzo[1,3]dioxol-5-ylamino)-pyrido[2,3-b]pyrazin-6-yl]-3-ethyl-urea]",238 to 241
2,"CCNC(=O)Nc1ccc2ncc(Nc3ccc(C(=O)N4CCOCC4)cc3)nc2n1 [Compound 48, 1-Ethyl-3-{3-[4-(morpholine-4-carbonyl)-phenylamino]-pyrido[2,3-b]-pyrazin-6-yl}-urea]",276 to 279
3,"CC(C)Oc1cccc(Nc2cnc3ccc(NC(=O)NC4CC4)nc3n2)c1 [Compound 49, 1-Cyclopropyl-3-[3-(3-isopropoxy-phenylamino)-pyrido[2,3-b]pyrazin-6-yl]-urea]",134
4,"CCNC(=O)Nc1ccc2ncc(-c3cccnc3OC(C)C)nc2n1 [Compound 51, 1-Ethyl-3-[3-(2-isopropoxy-pyridin-3-yl)-pyrido[2,3-b]pyrazin-6-yl]-urea]",231 to 232
5,"CCNC(=O)Nc1ccc2ncc(-c3ccn[nH]3)nc2n1 [Compound 52, 1-Ethyl-3-[3-(2H-pyrazol-3-yl)-pyrido[2,3-b]pyrazin-6-yl]-urea]",218 to 220
6,"CCNC(=O)Nc1ccc2ncc(-c3cncn3C)nc2n1 [Compound 53, 1-Ethyl-3-[3-(3-methyl-3H-imidazol-4-yl)-pyrido[2,3-b]pyrazin-6-yl]-urea]",257 to 259
7,"CCNC(=O)Nc1ccc2ncc(-c3ccccc3OCc3ccccc3)nc2n1 [Compound 57, 1-[3-(2-Benzyloxy-phenyl)-pyrido[2,3-b]pyrazin-6-yl]-3-ethyl-urea]",181 to 183
8,"CCNC(=O)Nc1ccc2ncc(-c3cnn(Cc4ccccc4)c3)nc2n1 [Compound 58, 1-[3-(1-Benzyl-1H-pyrazol-4-yl)-pyrido[2,3-b]pyrazin-6-yl]-3-ethyl-urea]",258 to 261
9,"CCNC(=O)Nc1ccc2ncc(-c3cnn(CC(C)C)c3)nc2n1 [Compound 59, 1-Ethyl-3-[3-(1-isobutyl-1H-pyrazol-4-yl)-pyrido[2,3-b]pyrazin-6-yl]-urea]",189 to 191
10,"CCNC(=O)Nc1ccc2ncc(-c3cnn(CCN4CCOCC4)c3)nc2n1 [Compound 60, 1-Ethyl-3-{3-[1-(2-morpholin-4-yl-ethyl)-1H-pyrazol-4-yl]-pyrido[2,3-b]pyrazin-6-yl}-urea]",223 to 226
11,"CCNC(=O)Nc1ccc2ncc(-c3cnc4[nH]ccc4c3)nc2n1 [Compound 61, 1-Ethyl-3-[3-(1H-pyrrolo[2,3-b]pyridin-5-yl)-pyrido[2,3-b]pyrazin-6-yl]-urea]",270 to 274
12,"CCNC(=O)Nc1ccc2ncc(-c3ccccc3OCC(C)C)nc2n1 [Compound 62, 1-Ethyl-3-[3-(2-isobutoxy-phenyl)-pyrido[2,3-b]pyrazin-6-yl]-urea]",179 to 181
13,"CCNC(=O)Nc1ccc2ncc(Nc3ccccc3)nc2n1 [Compound 64, 1-Ethyl-3-(3-phenylamino-pyrido-[2,3-b]pyrazin-6-yl)-urea]",229 to 231
14,"CC(=O)NCC(=O)Nc1ccc2ncc(Nc3ccc(C)cc3)nc2n1 [Compound 66, 2-Acetylamino-N-(3-p-tolylamino-pyrido [2,3-b]pyrazin-6-yl)-acetamide]",276 to 279
15,"CCNC(=O)Nc1ccc2ncc(-c3cccc(Br)c3OC(C)C)nc2n1 [Compound 67, 1-[3-(3-Bromo-2-isopropoxy-phenyl)-pyrido[2,3-b]pyrazin-6-yl]-3-ethyl-urea]",200 to 202
16,"CCNC(=O)Nc1ccc2ncc(-c3cc4ccccc4[nH]3)nc2n1 [Compound 70, 1-Ethyl-3-[3-(1H-indol-2-yl)-pyrido[2,3-b]pyrazin-6-yl]-urea]",> 300
17,"CCNC(=O)Nc1ccc2ncc(-c3cccc4c3oc3ccccc34)nc2n1 [Compound 71, 1-(3-Dibenzofuran-4-yl-pyrido[2,3-b]pyrazin-6-yl)-3-ethyl-urea]",> 300
18,"CCNC(=O)Nc1ccc2ncc(-c3cnc(N)nc3)nc2n1 [Compound 72, 1-[3-(2-Amino-pyrimidin-5-yl)-pyrido[2,3-b]pyrazin-6-yl]-3-ethyl-urea]",> 300
19,"CCNC(=O)Nc1ccc2ncc(-c3cc(F)c(F)c(F)c3)nc2n1 [Compound 81, 1-Ethyl-3-[3-(3,4,5-trifluoro-phenyl)-pyrido[2,3-b]pyrazin-6-yl]-urea]",305.4 to 307.2
20,"CCNC(=O)Nc1ccc2ncc(-c3cc(C)cc(C)c3)nc2n1 [Compound 82, 1-[3-(3,5-Dimethyl-phenyl)-pyrido[2,3-b]pyrazin-6-yl]-3-ethyl-urea]",255.3 to 257.9
21,"CCNC(=O)Nc1ccc2ncc(-c3ccc(-c4ccccc4)cc3F)nc2n1 [Compound 84, 1-Ethyl-3-[3-(3-fluoro-biphenyl-4-yl)-pyrido[2,3-b]pyrazin-6-yl]-urea]",263.9 to 265.6
22,"CCNC(=O)Nc1ccc2ncc(Nc3ccc(O)c(C)c3)nc2n1 [Compound 86, 1-Ethyl-3-[3-(4-hydroxy-3-methyl-phenylamino)-pyrido[2,3-b]pyrazin-6-yl]-urea]",277 to 280
23,"CCNC(=O)Nc1ccc2ncc(-c3cc(Cl)cc(Cl)c3)nc2n1 [Compound 90, 1-[3-(3,5-Dichloro-phenyl)-pyrido[2,3-b]pyrazin-6-yl]-3-ethyl-urea]",298 to 305
24,"CCNC(=O)Nc1ccc2ncc(-c3cc(Cl)ccc3Cl)nc2n1 [Compound 92, 1-[3-(2,5-Dichloro-phenyl)-pyrido[2,3-b]pyrazin-6-yl]-3-ethyl-urea]",264 to 269
25,"CCNC(=O)Nc1ccc2ncc(-c3cc(C)cc(Br)c3)nc2n1 [Compound 94, 1-[3-(3-Bromo-5-methyl-phenyl)-pyrido[2,3-b]pyrazin-6-yl]-3-ethyl-urea]",270 to 274
26,"CCNC(=O)Nc1ccc2ncc(-c3cc(Cl)cc(C)c3F)nc2n1 [Compound 96, 1-[3-(5-Chloro-2-fluoro-3-methyl-phenyl)-pyrido[2,3-b]pyrazin-6-yl]-3-ethyl-urea]",258 to 259
27,"CCNC(=O)Nc1ccc2ncc(-c3ccccc3C(F)(F)F)nc2n1 [Compound 97, 1-Ethyl-3-[3-(2-trifluoromethyl-phenyl)-pyrido[2,3-b]pyrazin-6-yl]-urea]",240 to 243

# Next, values leading:
row,melting point [°C],SMILES
1,246 to 249,"CCNC(=O)Nc1ccc2ncc(-c3ccc(OS(C)(=O)=O)c(OC)c3)nc2n1 [Compound 43, Methanesulfonic acid 4-[6-(3-ethyl-ureido)-pyrido[2,3-b]pyrazin-3-yl]-2-methoxy-phenyl ester]"
2,> 330,"CCNC(=O)Nc1ccc2ncc(-c3ccc(NC(=O)OCCOCCOCCOC)c(OC)c3)nc2n1 [Compound 44, {4-[6-(3-Ethyl-ureido)-pyrido[2,3-b]pyrazin-3-yl]-2-methoxy-phenyl}-carbamic acid 2-[2-(2-methoxy-ethoxy)-ethoxy]-ethyl ester]"
3,337 to 339,"CCNC(=O)Nc1ccc2ncc(-c3ccc(O)c(Br)c3)nc2n1 [Compound 47, 1-[3-(3-Bromo-4-hydroxy-phenyl)-pyrido[2,3-b]pyrazin-6-yl]-3-ethyl-urea]"
4,225 to 227,"CCNC(=O)Nc1ccc2ncc(-c3ccc(OCCCN4CCOCC4)c(OC)c3)nc2n1 [Compound 63, 1-Ethyl-3-{3-[3-methoxy-4-(3-morpholin-4-yl-propoxy)-phenyl]-pyrido[2,3-b]pyrazin-6-yl}-urea]"
5,182 to 185,"CCNC(=O)Nc1ccc2ncc(-c3cccc(OC)c3OC)nc2n1 [Compound 68, 1-[3-(2,3-Dimethoxy-phenyl)-pyrido[2,3-b]pyrazin-6-yl]-3-ethyl-urea]"
6,253,"CCNC(=O)Nc1ccc2ncc(-c3ccc(NC(=O)CCC(=O)OC)cc3)nc2n1 [Compound 76, N-{4-[6-(3-Ethyl-ureido)-pyrido[2,3-b]pyrazin-3-yl]-phenyl}-succinamic acid methyl ester]"
7,> 300,"CCNC(=O)Nc1ccc2ncc(-c3ccc(NC(C)=O)c(OC)c3)nc2n1 [Compound 77, N-{4-[6-(3-Ethyl-ureido)-pyrido[2,3-b]pyrazin-3-yl]-2-methoxy-phenyl}-acetamide]"
8,> 350,"CCNC(=O)Nc1ccc2ncc(-c3ccc(N)c([N+](=O)[O-])c3)nc2n1 [Compound 78, 1-[3-(4-Amino-3-nitro-phenyl)-pyrido[2,3-b]pyrazin-6-yl]-3-ethyl-urea]"
9,238.1 to 241.8,"CCNC(=O)Nc1ccc2ncc(-c3cc(C(C)=O)ccc3F)nc2n1 [Compound 79, 1-[3-(5-Acetyl-2-fluoro-phenyl)-pyrido[2,3-b]pyrazin-6-yl]-3-ethyl-urea]"
10,255.3 to 258.2,"CCNC(=O)Nc1ccc2ncc(-c3cc(C)c(OC)c(C)c3)nc2n1 [Compound 80, 1-Ethyl-3-[3-(4-methoxy-3,5-dimethyl-phenyl)-pyrido[2,3-b]pyrazin-6-yl]-urea]"
11,247.8 to 252.4,"CCNC(=O)Nc1ccc2ncc(-c3ccc(C)c(F)c3)nc2n1 [Compound 83, 1-Ethyl-3-[3-(3-fluoro-4-methyl-phenyl)-pyrido[2,3-b]pyrazin-6-yl]-urea]"
12,253.3 to 256.2,"CCNC(=O)Nc1ccc2ncc(-c3ccc(C)c([N+](=O)[O-])c3)nc2n1 [Compound 85, 1-Ethyl-3-[3-(4-methyl-3-nitro-phenyl)-pyrido[2,3-b]pyrazin-6-yl]-urea]"
13,256 to 259,"CCNC(=O)Nc1ccc2ncc(Nc3ccc(C(=O)OC)c(OC)c3)nc2n1 [Compound 87, 4-[6-(3-Ethyl-ureido)-pyrido[2,3-b]pyrazin-3-ylamino]-2-methoxy-benzoic acid methyl ester]"
14,254 to 257,"CCNC(=O)Nc1ccc2ncc(-c3cc(Cl)ccc3OC)nc2n1 [Compound 91, 1-[3-(5-Chloro-2-methoxy-phenyl)-pyrido[2,3-b]pyrazin-6-yl]-3-ethyl-urea]"
15,253 to 258,"CCNC(=O)Nc1ccc2ncc(-c3cc(F)ccc3OC)nc2n1 [Compound 93, 1-Ethyl-3-[3-(5-fluoro-2-methoxy-phenyl)-pyrido[2,3-b]pyrazin-6-yl]-urea]"
16,259 to 262,"CCNC(=O)Nc1ccc2ncc(-c3ccc(F)c(F)c3)nc2n1 [Compound 95, 1-[3-(3,4-Difluoro-phenyl)-pyrido[2,3-b]pyrazin-6-yl]-3-ethyl-urea]"
